# Assay results reported in patent US20250179032A1, “HETEROCYCLIC INHIBITORS OF GLUT9 FOR TREATMENT OF DISEASE” (HORIZON THERAPEUTICS IRELAND DAC, priority 2022, published 2025).
# Like-named read-outs stand apart in the source and are kept apart here.
# Target: T1, H. sapiens SLC2A9 variant 2 (GLUT9B) (Homo sapiens, UniProt Q9NRM0)
# T1 sequence (Q9NRM0 1-511 isoform Q9NRM0-2): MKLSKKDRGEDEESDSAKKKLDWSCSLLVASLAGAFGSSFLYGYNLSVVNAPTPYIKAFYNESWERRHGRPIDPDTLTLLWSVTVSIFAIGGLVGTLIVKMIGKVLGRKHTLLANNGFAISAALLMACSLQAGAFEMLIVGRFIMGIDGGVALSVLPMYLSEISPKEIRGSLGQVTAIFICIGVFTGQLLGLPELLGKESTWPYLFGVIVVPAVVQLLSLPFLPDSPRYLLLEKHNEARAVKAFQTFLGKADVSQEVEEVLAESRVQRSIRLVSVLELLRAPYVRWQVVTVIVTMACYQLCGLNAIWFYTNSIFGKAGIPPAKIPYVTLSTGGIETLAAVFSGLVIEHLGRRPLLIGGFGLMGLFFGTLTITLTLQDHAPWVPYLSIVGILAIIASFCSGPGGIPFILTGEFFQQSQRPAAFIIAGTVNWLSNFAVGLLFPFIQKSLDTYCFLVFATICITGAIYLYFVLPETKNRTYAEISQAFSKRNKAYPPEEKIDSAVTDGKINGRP
# Assay: GLUT9 functional assay: uric acid uptake in HEK293T cells, allantoin formation by MS/MS as proxy of GLUT9B inhibition
# Type: cell-based
# Conditions: HEK293T cells stably expressing GLUT9B and transiently A. oryzae uricase, uric acid 0.3 mM, 37° C.
# How it was run: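 Inhibition of GLUT9B-mediated urate uptake read as reduced allantoin formation, measured by MS/MS against allantoin standards in HEK293T matrix with log-logistic fitting. Stable GLUT9B HEK293T cells carrying transfected A. oryzae uricase were incubated 15 or 60 min at 37° C with uric acid at Km (0.3 mM), pH 7.4 gluconate buffer.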
# [1] = 15 minute assay, read-out: 15 min IC50
# [2] = 60 minute assay, read-out: 60 min IC50
Compound,IC50 [1],IC50 [2]
"O=C(O)C1CCN(c2nc(CCCC(F)(F)F)cnc2-c2ccc3c(c2)OC(F)(F)O3)CC1 [Compound 160, 1-(3-(2,2-difluorobenzo[d][1,3]dioxol-5-yl)-6-(4,4,4-trifluorobutyl)pyrazin-2-yl)piperidine-4-carboxylic acid]",0.5 to 2 µM,–
"O=C(O)C1CCN(c2nc(CCC(F)(F)F)cnc2-c2ccc(OC(F)(F)F)cc2)CC1 [Compound 161, 1-(3-(4-(trifluoromethoxy)phenyl)-6-(3,3,3-trifluoropropyl)pyrazin-2-yl)piperidine-4-carboxylic acid]",0.5 to 2 µM,–
"O=C(O)C1CCN(c2nc(CCC(F)(F)F)cnc2-c2ccc(C(F)(F)F)cc2)CC1 [Compound 162, 1-(3-(4-(trifluoromethyl)phenyl)-6-(3,3,3-trifluoropropyl)pyrazin-2-yl)piperidine-4-carboxylic acid]",0.5 to 2 µM,–
"O=C(O)C1CCN(c2nc(CCC(F)(F)F)cnc2-c2ccc(OC(F)F)cc2)CC1 [Compound 163, 1-(3-(4-(difluoromethoxy)phenyl)-6-(3,3,3-trifluoropropyl)pyrazin-2-yl)piperidine-4-carboxylic acid]",0.5 to 2 µM,–
"O=C(O)C1CCN(c2nc(CCC(F)(F)F)cnc2-c2ccc3c(c2)OC(F)(F)O3)CC1 [Compound 164, 1-(3-(2,2-difluorobenzo[d][1,3]dioxol-5-yl)-6-(3,3,3-trifluoropropyl)pyrazin-2-yl)piperidine-4-carboxylic acid]",0.5 to 2 µM,–
"O=C(O)C1(O)CCN(c2nc(CCCC(F)(F)F)cnc2-c2cc(F)c3occc3c2)CC1 [Compound 165, 1-(3-(7-fluorobenzofuran-5-yl)-6-(4,4,4-trifluorobutyl)pyrazin-2-yl)-4-hydroxypiperidine-4-carboxylic acid]",< 0.5 µM,–
"O=C(O)C1(O)CCN(c2nc(CCCC(F)(F)F)cnc2-c2ccc3c(c2)OCO3)CC1 [Compound 166, 1-(3-(benzo[d][1,3]dioxol-5-yl)-6-(4,4,4-trifluorobutyl)pyrazin-2-yl)-4-hydroxypiperidine-4-carboxylic acid]",0.5 to 2 µM,–
"COCCOc1ccc(-c2ncc(CCCC(F)(F)F)nc2N2CCC(O)(C(=O)O)CC2)cc1 [Compound 167, 4-hydroxy-1-(3-(4-(2-methoxyethoxy)phenyl)-6-(4,4,4-trifluorobutyl)pyrazin-2-yl)piperidine-4-carboxylic acid]",> 2 µM,–
"COCCCc1cnc(-c2cc(F)c3occc3c2)c(N2CCC(C(=O)O)CC2)c1 [Compound 168, 1-(2-(7-Fluorobenzofuran-5-yl)-5-(3-Methoxypropyl)Pyridin-3-yl)piperidine-4-carboxylic acid]",< 0.5 µM,< 0.5 µM
"COCCCc1cnc(-c2cc(F)c3c(c2)OCO3)c(N2CCC(C(=O)O)CC2)c1 [Compound 169, 1-(2-(7-fluorobenzo[d][1,3]dioxol-5-yl)-5-(3-methoxypropyl)pyridin-3-yl)piperidine-4-carboxylic acid]",< 0.5 µM,–
"COCCCc1cnc(-c2cnc3occc3c2)c(N2CCC(C(=O)O)CC2)c1 [Compound 170, 1-(2-(Furo[2,3-b]Pyridin-5-yl)-5-(3-Methoxypropyl)Pyridin-3-yl)piperidine-4-carboxylic acid]",0.5 to 2 µM,> 2 µM
"COCCCc1cnc(-c2ccc3c(c2)OCO3)c(N2CCC(O)(C(=O)O)CC2)n1 [Compound 171, 1-(3-(benzo[d][1,3]dioxol-5-yl)-6-(3-methoxypropyl)pyrazin-2-yl)-4-hydroxypiperidine-4-carboxylic acid]",> 2 µM,–
"COCCCc1cnc(-c2ccc3occc3c2)c(N2CCC(C(=O)O)CC2)n1 [Compound 172, 1-(3-(benzofuran-5-yl)-6-(3-Methoxypropyl)Pyrazin-2-yl)Piperidine-4-carboxylic acid]",< 0.5 µM,< 0.5 µM
"COCCCc1cnc(-c2cc(F)c3occc3c2)c(N2CCC(C(=O)O)CC2)n1 [Compound 173, 1-(3-(7-Fluorobenzofuran-5-yl)-6-(3-Methoxypropyl)Pyrazin-2-yl)piperidine-4-carboxylic acid]",< 0.5 µM,< 0.5 µM
"O=C(O)C1(O)CCN(c2nc(CCCC(F)(F)F)cnc2-c2ccc3occc3c2)CC1 [Compound 174, 1-(3-(benzofuran-5-yl)-6-(4,4,4-trifluorobutyl)pyrazin-2-yl)-4-hydroxypiperidine-4-carboxylic acid]",0.5 to 2 µM,–
"COCCCc1cnc(-c2ccc3occc3c2)c(N2CC(C(=O)O)C2)n1 [Compound 175, 1-(3-(benzofuran-5-yl)-6-(3-methoxypropyl)pyrazin-2-yl)azetidine-3-carboxylic acid]",> 2 µM,> 2 µM
"COCCCc1cnc(-c2ccc3c(c2)OCO3)c(N2CC(C(=O)O)C2)n1 [Compound 176, 1-(3-(benzo[d][1,3]dioxol-5-yl)-6-(3-methoxypropyl)pyrazin-2-yl)azetidine-3-carboxylic acid]",> 2 µM,–
"O=C(O)C1CCN(c2nc(CCCOCC(F)(F)F)cnc2-c2ccc3occc3c2)CC1 [Compound 177, 1-(3-(benzofuran-5-yl)-6-(3-(2,2,2-trifluoroethoxy)propyl)pyrazin-2-yl)piperidine-4-carboxylic acid]",< 0.5 µM,–

# Continued, values first:
IC50 [1],IC50 [2],Compound
–,0.5 to 2 µM,"O=C(O)C1CCN(c2nc(CCCOCC(F)(F)F)cnc2-c2ccc3c(c2)OCO3)CC1 [Compound 178, 1-(3-(benzo[d][1,3]dioxol-5-yl)-6-(3-(2,2,2-trifluoroethoxy)propyl)pyrazin-2-yl)piperidine-4-carboxylic acid]"
–,0.5 to 2 µM,"COCCCc1cnc(-c2ccc3oc(COC)cc3c2)c(N2CCC(C(=O)O)CC2)n1 [Compound 179, 1-(3-(2-(methoxymethyl)benzofuran-5-yl)-6-(3-methoxypropyl)pyrazin-2-yl)piperidine-4-carboxylic acid]"
–,< 0.5 µM,"COCCCc1cnc(-c2ccc3occc3c2)c(N2CCC3(C(=O)O)CC2C3)n1 [Compound 181, 2-(3-(benzofuran-5-yl)-6-(3-methoxypropyl)pyrazin-2-yl)-2-azabicyclo[3.1.1]heptane-5-carboxylic acid]"
–,> 2 µM,"COCCCc1cnc(-c2ccc3occc3c2)c(NC23CC(C(=O)O)(C2)C3)n1 [Compound 182, 3-((3-(benzofuran-5-yl)-6-(3-methoxypropyl)pyrazin-2-yl)amino)bicyclo[1.1.1]pentane-1-carboxylic acid]"
–,< 0.5 µM,"COCCCc1cnc(-c2cc(F)c3occc3c2)c(N2CCC(C)(C(=O)O)CC2)n1 [Compound 184, 1-(3-(7-fluorobenzofuran-5-yl)-6-(3-methoxypropyl)pyrazin-2-yl)-4-methylpiperidine-4-carboxylic acid]"
–,0.5 to 2 µM,"COCCCc1cnc(-c2cc(F)c3occc3c2)c(N2CCC(O)(C(=O)O)CC2)n1 [Compound 185, 1-(3-(7-fluorobenzofuran-5-yl)-6-(3-methoxypropyl)pyrazin-2-yl)-4-hydroxypiperidine-4-carboxylic acid]"
–,< 0.5 µM,"COCCCc1cnc(-c2cc(F)c3occc3c2)c(N2CCC(C(=O)O)C3CC32)n1 (stereo not shown) [Compound 186, 2-(3-(7-fluorobenzofuran-5-yl)-6-(3-methoxypropyl)pyrazin-2-yl)-2-azabicyclo[4.1.0]heptane-5-carboxylic acid]"
–,< 0.5 µM,"COCCCc1cnc(-c2cc(F)c3occc3c2)c(N2CCC(C(=O)O)C(F)(F)C2)n1 (stereo not shown) [Compound 187, 3,3-difluoro-1-(3-(7-fluorobenzofuran-5-yl)-6-(3-methoxypropyl)pyrazin-2-yl)piperidine-4-carboxylic acid]"
–,< 0.5 µM,"O=C(O)C1CCN(c2nc(CCCC(F)F)cnc2-c2cc(F)c3occc3c2)CC1 [Compound 188, 1-(6-(4,4-difluorobutyl)-3-(7-fluorobenzofuran-5-yl)pyrazin-2-yl)piperidine-4-carboxylic acid]"
–,< 0.5 µM,"COCCCc1cnc(-c2ccc3c(c2)OCO3)c(N2CCC(C(=O)O)CC2)n1 [Compound 189, 1-(3-(benzo[d][1,3]dioxol-5-yl)-6-(3-Methoxypropyl)Pyrazin-2-yl)piperidine-4-carboxylic acid]"
–,< 0.5 µM,"COCCCc1cnc(-c2cc(F)c3c(c2)OCO3)c(N2CCC(C(=O)O)CC2)n1 [Compound 190, 1-(3-(7-Fluorobenzo[d][1,3]dioxol-5-yl)-6-(3-Methoxypropyl)Pyrazin-2-yl)piperidine-4-carboxylic acid]"
–,< 0.5 µM,"COCCCc1cnc(-c2ccc3c(c2)OCO3)c(N2CCC(C(=O)O)CC2)c1 [Compound 191, 1-(2-(benzo[d][1,3]dioxol-5-yl)-5-(3-Methoxypropyl)Pyridin-3-yl)piperidine-4-carboxylic acid]"
–,< 0.5 µM,"COCCCc1cnc(-c2cc(F)c3c(c2)CCO3)c(N2CCC(C)(C(=O)O)CC2)n1 [Compound 192, 1-(3-(7-fluoro-2,3-dihydrobenzofuran-5-yl)-6-(3-methoxypropyl)pyrazin-2-yl)-4-methylpiperidine-4-carboxylic acid]"
–,> 2 µM,"COCCCc1cnc(-c2ccc3c[nH]nc3c2)c(N2CCC(C(=O)O)CC2)n1 [Compound 193, 1-(3-(2H-indazol-6-yl)-6-(3-methoxypropyl)pyrazin-2-yl)piperidine-4-carboxylic acid]"
